Patent publication US5733563A, “Albumin based hydrogel” (Universite du Quebec a Montreal, priority 1996, dated 1998)

What was measured:
[1] = target: asparaginase of E.coli immobilized in hydrogel prepared with albumin and PEG 10,000 (Escherichia coli, UniProt P00805); assay: Apparent Km of asparaginase immobilized in albumin-PEG 10,000 hydrogel; assay type: biochemical; conditions: slab thickness of 3 mm
Protocol: (§1) As another example of enzyme immobilization in hydrogels prepared with albumin and PEG 10,000 of Mr, the enzyme asparaginase of E.coli was used. […] The operational stability of the immobilized enzyme in presence of a continuous feeding in substrate extend at 37° C. over a 20 days period without significant loss of activity.

[2] = substrate: NC(=O)C[C@H](N)C(=O)O; assay: Km of soluble asparaginase for asparagine; assay type: biochemical, E.coli; conditions: other: soluble form of the enzyme; pH 8.0; 37.0 °C
Protocol: as §1

Molecule	apparent Km for the substrate asparagine [1] [µM]	Km [2] [µM]
NC(=O)C[C@H](N)C(=O)O [asparagine]	2.4	–
asparaginase of E.coli, soluble form (Escherichia coli K-12) (protein) LPNITILATGGTIAGGGDSATKSNYTVGKVGVENLVNAVPQLKDIANVKGEQVVNIGSQDMNDNVWLTLAKKINTDCDKTDGFVITHGTDTMEETAYFLDLTVKCDKPVVMVGAMRPSTSMSADGPFNLYNAVVTAADKASANRGVLVVMNDTVLDGRDVTKTNTTDVATFKSVNYGPLGYIHNGKIDYQRTPARKHTSDTPFDVSKLNELPKVGIVYNYANASDLPAKALVDAGYDGIVSAGVGNGNLYKSVFDTLATAAKTGTAVVRSSRVPTGATTQDAEVDDAKYGFVASGTLNPQKARVLLQLALTQTKDPQQIQQIFNQY	–	2.2
